| Structure (SMILES) | melting point |
| --- | --- |
| CC(=O)Oc1cnccc1CCCOc1cccnc1Oc1ccccc1 | 79 to 80 °C |
| CN(CCCN)CCCNc1ccc2ncn3c4ccccc4c(=O)c1c23 | 97 to 99 °C |
| COC(=O)c1ccc(N2CCC(N(C)Cc3ccccc3)CC2)cc1 | 103 to 104 °C |
| CCOC(=O)c1cccnc1NC(=O)Cc1cccc(Oc2ccccc2)c1 | 90 to 91 °C |
| O=C1NC(=O)C(c2cn3c4c(cccc24)CC3)C1c1c[nH]c2ccccc12 (stereo not given) | 144 to 148 °C |
| N#Cc1c(-c2ccc(N)cc2)cc(-c2ccccc2O)nc1NC(=O)c1cccs1 | 292 to 293 °C |
| CN1CCC(OC2c3ccccc3CCn3c2nc(-c2ccccc2)c3-c2ccccc2)CC1 (stereo not given) | 90 °C |
| COc1ccc(Cc2nnsc2-c2cccs2)cc1 | 72.2 to 73.3 °C |
| COc1ccc(CN2CC=C(c3cc4ccccc4s3)CC2)cc1 | 158 to 160 °C |
| CN1CCN(c2cccc3ccc(N)cc23)CC1 | 157 to 159 °C |
| Cn1c2cccc(C#N)c2c2nc3ccccc3nc21 | 237 °C |
| CSc1nnc(-c2ccco2)s1 | 128 °C |
| O=C(c1ccccc1)c1cc(Cl)ccc1OCCCl | 73 to 74.5 °C |
| NNS(=O)(=O)c1cccc2cccnc12 | 135 to 137 °C |
| C#CCNC(=O)N1CC(c2ccc(C(C)(C)C)cc2)C1 | 141 °C |
| CCOCC1N=NC(=S)N1C (stereo not given) | 137 to 138 °C |
| N#CCCC(C#N)(CCC#N)C(N)=O | 118 to 120 °C |
| N#Cc1cc(O)c(O)c(O)c1 | 219 °C |
| CC1(C)CCC23CCC4(C)C(CCC5C6(C)CCC(O)C(C)(C)C6CCC54C)C2C1OC3 (stereo not given) | 268 to 269 °C |
| COc1ccccc1NC(=O)NC1N=C(c2ccccc2)c2ccccc2N(C)C1=O (stereo not given) | 258 to 260 °C |
| CCNC1CCc2c(ccc(OC)c2OC)C1O (stereo not given) | 125 to 128 °C |
| Clc1ccc2c(c1)C(c1ccccc1Cl)=NCc1c[nH]cc1-2 | 204 to 206 °C |
| CCOP(=S)(OCC)ON=C1C=CC(=C(C#N)c2ccccc2C)S1 | 86 to 87 °C |
| O=C(NCC1CCN(CC2(C(=O)O)CCCC2)CC1)N1C(=O)C2(CCCC2)c2ccccc21 | 188 °C |
| FC(F)(F)c1n[nH]c2c1nc(-c1ccccc1)c1ccccc12 | 264 to 265 °C |

| Structure (SMILES) | melting point |
| --- | --- |
| O=C(CCC(=O)N1CCC(c2ccc(Cl)cc2)CC1)c1ccc2c(c1)CCN(CC1CCCO1)CC2 (stereo not given) | 123 to 125 °C |
| COc1ccccc1Oc1c(Cl)nc(N2CCOCC2)nc1OCCOCc1ccccc1 | 133 to 134 °C |
| CC(C)C[C@H](NC(=O)OCc1ccccc1)C(=O)N[C@@H](Cc1ccccc1)C(=O)CS(C)(=O)=O | 142 to 144 °C |
| Cc1noc(NS(=O)(=O)c2ccccc2-c2ccc(-c3ncco3)cc2Cn2nccn2)c1C | 162 to 168 °C |
| O=C(NCCCO)OCc1ccccc1 | 47 to 49 °C |
| COc1ccc2c(c1)OC=C(C(=O)N1CCN(C(c3ccc(F)cc3)c3ccc(F)cc3)CC1)O2 | 65 °C |
| CC1=C2CCC(=O)C23CCC(C3)C1(C)C (stereo not given) | 35 to 36 °C |
| N#Cc1cc(F)c(Cl)c(Br)c1Cl | 110 to 112 °C |
| N#CCc1c(-c2ccccc2)[nH]c2nccnc12 | 247 to 248 °C |
| CC(CNC(=O)CN1CCCC1=O)N1CCN(C)CC1 (stereo not given) | 84 to 85 °C |
| COc1cc2c(c(Cl)c1Cl)C(=O)C(CCCl)C2 (stereo not given) | 103 to 105 °C |
| CC(C)C(NC(=O)Nc1ccc(C(=O)NCC(=O)OCc2ccccc2)cc1)C(=O)N1CCCC1C(=O)NC(C(=O)C(F)(F)F)C(C)C (mixture of isomers) | 65 to 70 °C |
| CSCC(C)OC(=O)C(=C1NCCCS1)[N+](=O)[O-] (stereo not given) | 58 to 60 °C |
| OCCc1c(C2=CCC(c3ccccc3)(N3CCCC3)CC2)[nH]c2ccc(F)cc12 (stereo not given) | 188 to 191 °C |
| C[C@]12C[C@H](c3ccc(O)cc3)C3=C4CCC(=O)C=C4CC[C@H]3[C@@H]1CCC2=O | 220 °C |
| CN(C)CC1=C(Nc2ccccc2)CC(C)(C)CC1=O | 111 to 112 °C |
| O=C(O)C(=O)NCCCCCC1CCSS1 (stereo not given) | 75 to 79 °C |
| O=C(Nc1ccccc1)c1nc(-c2ccc(Cl)cc2Cl)c(-c2ccc(Cl)cc2)s1 | 167 to 168 °C |
| CC12CCC(=O)C=C1CCC1C2CCC2(C)C1CCC2(O)C(=O)CCl (stereo not given) | 239 °C |
| NS(=O)(=O)c1ccc(Cl)c(NC(=O)c2cnn3c(C(F)(F)F)cc(-c4ccc(C(F)(F)F)cc4)nc23)c1 | 300 °C |
| CC1(C(=O)N2C[C@@H](O)C[C@H]2C(=O)NC2(C#N)CC2)CC1 | 160 °C |
| OCc1cc2ccc3ccc4ccccc4c3c2o1 | 125 to 126 °C |
| CN(C)c1ncc(-c2cccc(-n3cnc4cc(-c5ccoc5)ccc43)c2)cn1 | 183 to 184 °C |
| CC(C)C(NC(=O)OCc1ccccn1)C(=O)NC(Cc1ccccc1)C(O)C(O)C(Cc1ccccc1)NC(=O)OC(C)(C)C (stereo not given) | 202 to 204 °C |

Continued, values first:

| melting point | Structure (SMILES) |
| --- | --- |
| 206 °C | CCc1cc2ccccn2c1C(=O)c1cc(Cl)c(O)c(Cl)c1 |
| 143 to 145 °C | COC(=O)CCCCC(=O)Nc1ccc2c3c(n(CCCNC(=O)OC(C)(C)C)c(=O)c2c1)-c1ccccc1C3=O |
| 172 to 173 °C | Cc1cc2c(c3c1NC(=O)CC3)OC(CO)C2 (stereo not given) |
| 206 to 207 °C | CCCCn1c(=O)c2[nH]c(/C=C/c3cc(OC)c(OC)c(OC)c3)nc2n(CCCC)c1=O |
| 80 to 91 °C | CCOC(=O)c1cccc(Nc2ccncc2N)c1 |
| 110 to 111 °C | Cc1c(Br)cc(C(C)(CO)c2ccc(C(C)C)cc2)c(O)c1C (stereo not given) |
| 187 to 194 °C | CCn1cc(C(=O)O)c(=O)c2cc(F)c(N3CCC(N)C3)c(C)c21 (stereo not given) |
| 149 to 150 °C | Cc1cc(C)cc(C(=O)c2[nH]c(=O)[nH]c(=O)c2C(C)C)c1 |
| 83 to 85 °C | CCOC(=O)c1ccc(N2CCC(NC[C@H](O)COc3ccc(O)c(S(C)(=O)=O)c3)CC2)cc1 |
| 232 to 235 °C | COc1cc(C2CCN(C)CC2)ccc1-c1nc2c(N[C@H]3[C@@H](C(N)=O)[C@@H]4C=C[C@H]3C4)c(Cl)cnc2[nH]1 |
| 34 to 36 °C | CC(C)Oc1ccc([N+](=O)[O-])cc1C(F)(F)F |
| 222 to 226 °C | Cc1c[nH]c2c(=O)n(CC(=O)N[C@H](C=O)CC(=O)O)cnc12 |
| 178 to 180 °C | Cc1ccccc1-c1c(CNC(=O)Nc2ccc(F)cc2F)oc2ccc(Cl)cc12 |
| 236 to 237 °C | C=CCc1cc(Cc2cnc(N)nc2N)c2ccc(C)nc2c1O |
| 92 to 93 °C | CC(=O)OC(CS(=O)(=O)CC(OC(C)=O)c1ccc(N)cc1)c1ccc(N)cc1 (stereo not given) |
| 252 to 253 °C | CCN(c1cc2c3c(c1)CCCC3CCC2)c1ncc(C(=O)O)cn1 |
| > 248 °C | O=C1COc2cc(F)c(NC(=O)c3ccccc3[N+](=O)[O-])cc2N1 |
| 259 to 262 °C | CCn1ccc2nc(N3CCN(c4ncc5cc(OC)c(OC)cc5n4)CC3)ncc2c1=O |
| 162 °C | O=C(NN=c1[nH]nc(Cl)c2ccccc12)c1ccccc1 |
| 245 to 246 °C | COc1ccc(-c2coc3cc(OC(C)C)ccc3c2=O)cc1 |
| 91 to 93 °C | COc1ccc(C(=O)Cc2cc(OC)cc(Br)c2OC)cc1 |
| 146 to 148 °C | CC(C)n1nnc(-c2cnc3ccccn3c2=O)n1 |
| 222 to 223 °C | COc1ccc(-c2cc(=S)[nH]nc2-c2ccc(OC)c(F)c2)cc1 |
| 195 to 196 °C | COc1ccnc(C(=O)c2[nH]c3cc(Cl)ccc3c2N)c1 |
| 141 to 142 °C | Cc1nnc(-c2ccnc(NCc3cccc(C(F)(F)F)c3)c2)o1 |
| 65 to 67 °C | CCOC(=O)CCC(C)Oc1ccc2c(c1)C(N(CC)S(C)(=O)=O)CC(C)(C)O2 (stereo not given) |

| melting point | Structure (SMILES) |
| --- | --- |
| 301 °C | Cn1ccc(-c2[nH]nc3c2C(=O)c2c(NC(=O)NN4CCOCC4)cccc2-3)c1 |
| 124 to 126 °C | CCOC(=O)C1=CC(=NO)CC(c2ccc(Cl)cc2F)N1 (stereo not given) |
| 124 to 125 °C | O=C(CCCCCl)c1ccc2c(c1)Cc1cc(C(=O)CCCCCl)ccc1-2 |
| 226 to 233 °C | COc1cc2c(cc1Nc1ncc(Cl)c(Nc3cc(C(N)=O)ccc3OC)n1)CCN(C(=O)CN(C)C)CC2 |
| 95 to 96 °C | Cc1ccsc1-c1ccc(C(C)C(=O)O)cc1 (stereo not given) |
| 49.6 °C | CCCCN=C(c1cc(Cl)ccc1O)c1ccccc1Cl |
| 72 to 74 °C | Cc1cccc(-c2n[nH]cc2-c2ccc(F)c(-c3ccc(O)cc3)c2)n1 |
| 160 to 162 °C | CC1(C)NC(=O)N(CSc2cc(C(C)(C)C)c(O)c(C(C)(C)C)c2)C1=O |
| 170 to 172 °C | C=CCc1cc(-c2ccc(F)cc2)cc(C(=O)O)c1O |
| 139 to 140 °C | Cc1cc(C(=O)N2Cc3cccn3Cc3ccccc32)ccc1C1=CCC2CC1C2(C)C (stereo not given) |
| 50 to 70 °C | CS(=O)(=O)c1ccc(-c2cnn(-c3cccc(Cl)c3)c(=O)c2COC(=O)c2ccccc2)cc1 |
| 83.5 °C | CCOC(=O)c1cc(C(=O)OCC)cc([N+](=O)[O-])c1 |
| 66.1 °C | Cc1ccc(-c2ccc([Si](C)(C)C)cc2)nc1 |
| 84 to 85 °C | COC(=O)c1ccc2sc(C)c(Br)c2c1 |
| > 300 °C | N#Cc1ccccc1Cc1c(-c2ccc(OC(F)F)c(OC3CC3)c2)[nH]c2cn[nH]c(=O)c12 |
| 139 to 142 °C | CCOC(=O)C(=CNc1nonc1C)C(=O)c1cc(F)c(Cl)nc1Cl |
| 171 to 173 °C | O=C(O)c1cccc2c1CCc1cccc(O)c1S2 |
| 83 to 86 °C | COC(=O)C1=C(SC)N(c2ccc(Cl)cc2Cl)CCC1 |
| 61 to 62 °C | COc1cc(OC)cc(C2CCCCC2=O)c1 (stereo not given) |
| 235 to 237 °C | COCc1cc2c(c3c1[nH]c1ccc(O)cc13)C(=O)N(CCN(C)C)C2=O |
| 150 to 153 °C | CN1CCc2cc(O)c(O)cc2C1C1(c2ccc3ccccc3c2)CCC1 (stereo not given) |
| 153 to 155 °C | CCOC(=O)CCc1nnc(CNC(=O)c2ccc(Cl)c(Cl)c2)n1-c1sc(CC)cc1C(=O)c1ccccc1Cl |
| 167 to 168 °C | CC(=O)c1ccc2c(c1)OC(C(=O)O)CO2 (stereo not given) |
| 128 to 129 °C | COC(=O)c1cccc(NC(=O)c2ccc(OC)c(Nc3cccc(C(F)(F)F)c3)c2)c1 |
| 117 to 119 °C | Cc1ccc(C(=O)c2cc(C)n(C)c2)cc1 |
